Results taken from patent publication US20100120715A1, “BETA-LACTAMASE INHIBITORS” (priority 2007, published 2010).
Like-named read-outs stand apart in the source and are kept apart here.

Legend:
[1] = system: K. pneumoniae expressing the Class A carbapenemase KPC-2; test: microbe, parasite or virus in culture; details: in the presence of fixed 8 μg/mL Ceftazidime
Text: (§1) To determine the ability of test compounds to potentiate the inhibition of the growth of bacterial strains producing beta-lactamase enzymes, classic cell based screening assays were employed. Four bacteria strains producing beta-lactamase enzymes were used: K. pneumoniae expressing the Class A Extended Spectrum Beta-Lactamase (ESBL) CTX-M-15, E. coli expressing the Class A ESBL SHV-5, E. cloacae expressing the Class C P99+, and K. pneumoniae expressing the Class A carbapenemase KPC-2. In order to evaluate the ability of test compounds to inhibit beta-lactamase activity, Applicants used a modification of the broth microdilution assay. The assay was conducted in Cation Adjusted Mueller Hinton Broth (CAMHB, BD # 212322, BD Diagnostic Systems, Sparks, Md.). Bacteria strains were grown for 3-5 hours in CAMBH broth. All four strains were grown in presence of 50 μg/mL ampicillin to ensure resistance is maintained. In the meantime, test compounds were diluted in DMSO to a 0.1 mg/mL stock. The compounds were added to a microtiter plate and were diluted in 2-fold serial dilutions in CAMHB in a final concentration range of 8 μg/mL to 0.015 μg/ml. An overlay of CAMHB containing a cephalosporin was added to the compounds at a final static concentration of 8 μg/ml. […] Each of these compound plates are made in quadruplicate, one for each bacteria strain. In addition to the titration of test compounds the MICs of a panel of cephalosporins is also tested to ensure the strains are behaving consistently from test to test. Once the test compound and cephalosporin are added the plates can be inoculated. Inocula are conducted according to CLSI broth microdilution method. After inoculation the plates are incubated for 16-20 hours at 37° C. then the Minimal Inhibitory Concentration (MIC) of the test compound is determined visually.

Class C P99 AmpC = target: T1, Class C P99 AmpC (Enterobacter cloacae, UniProt P05364); type: biochemical; details: purified enzyme; nitrocefin 100 μM, PBS pH 7.0; read-out: P99 AmpC IC50 Range
T1 construct: made in house; host or cells: E. coli BL21(DE3)
T1 sequence (P05364 21-381): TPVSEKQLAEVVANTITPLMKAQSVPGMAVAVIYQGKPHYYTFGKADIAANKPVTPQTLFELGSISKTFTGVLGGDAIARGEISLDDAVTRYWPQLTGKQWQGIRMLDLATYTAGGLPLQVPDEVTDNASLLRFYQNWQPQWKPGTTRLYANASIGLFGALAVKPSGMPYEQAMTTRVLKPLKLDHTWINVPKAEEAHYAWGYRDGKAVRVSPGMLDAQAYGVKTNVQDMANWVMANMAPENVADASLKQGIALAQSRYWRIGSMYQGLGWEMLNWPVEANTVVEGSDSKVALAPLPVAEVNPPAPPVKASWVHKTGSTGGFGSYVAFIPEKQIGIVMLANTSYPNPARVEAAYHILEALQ
Protocol: (§2) Isolation of β-lactamases. For all examples, purified beta-lactamase enzymes were used to measure a compounds' ability to inhibit the Class A ESBL CTXM-15, the Class C P99 AmpC and the Class A carbapenemase KPC-2. […] The enzyme preparations are described herein.
(§3) For the isolation and purification of SHV-5, p99 AmpC, KPC-2 and CTX-M15 β-lactamases, E. coli BL21(DE3) bacterial cells carrying expression plasmids (expressed as native untagged proteins) for the individual β-lactamases were grown in 1 L of Superbroth (Teknova Inc. Hollister, Calif.) supplemented with 100 μg/ml kanamycin and 1×5052 (0.5% glycerol, 0.05% glucose and 0.2% α-lactose) at 35° C. for 18-20 hours. Cells were harvested by centrifugation (4,000×g, 4° C., 20 min), and resuspended in 50 ml of 10 mM HEPES pH 7.5 ( 1/20 of the initial volume). The cells were lysed by sonication (5 pulses of 45 seconds) at 45 W on ice. The lysates were clarified by centrifugation at 10,000×g for 40 minutes at 4° C. Samples were diluted 5-fold in 50 mM sodium acetate pH 5.0, stored overnight at 4° C., after which they were centrifuged at 10,000×g for 30 minutes to clarify, and filtered through 0.45 μm filters. The samples were loaded onto a 5 ml Capto S sepharose cation exchange column (GE Healthcare) pre-equilibrated with 50 mM sodium acetate pH 5.0. The column was washed with 5 column volumes of 50 mM sodium acetate pH 5.0 to wash out unbound protein and a linear gradient of NaCl (0 to 500 mM) was used to elute the protein (over 16 CV) from the column. Fractions were assayed for β-lactamase activity using Centa (Calbiochem, Gibbstown, N.J.) as a reporter β-lactamase substrate for activity in the isolated fractions. Active fractions were pooled, concentrated and further purified by gel filtration chromatography on a Superdex 75 prep grade gel filtration column (GE Healthcare, Piscataway, N.J.) pre-equilibrated in 50 mM Hepes pH 7.5, 150 mM NaCl. Active fractions were pooled concentrated, quantitated by BCA protein determination (Thermo Scientific, Rockford, Ill.), and frozen at −80° C. in 20% glycerol until use.
(§4) β-lactamase Inhibition. To determine the level of inhibition of β-lactamaseenzymes, compounds were diluted in PBS at pH 7.0 to yield concentrations between 100 and 0.005 μM in microtiter plates. An equal volume of diluted enzyme stock was added, and the plates were incubated at 37° C. for 10 min. Nitrocefin solution was then dispensed as substrate into each well at a final concentration of 100 μM, and the plates were immediately read with the kinetic program at 486 nm for 10 min on the SPECTRAMAX® Plus^384 (high-throughput microplate spectrophotometer; Molecular Devices Corp., Sunnyvale, Calif.). Maximum rates of metabolism were then compared to those in control wells (without inhibitors), and percentages of enzyme inhibition were calculated for each concentration of inhibitor. The concentration of inhibitor needed to reduce the initial rate of hydrolysis of substrate by 50% (IC50) was calculated as the residual activity of β-lactamase at 486 nm using the SoftMax Pro 5.0 software (Molecular Devices Corp.).

[2] = system: K. pneumoniae expressing the Class A ESBL CTX-M-15; test: microbe, parasite or virus in culture; type: cell-based; details: in the presence of fixed 8 μg/mL Ceftazidime
Text: as §1, with “An overlay of CAMHB containing a cephalosporin was added to the compounds at a final static concentration of 8 μg/ml.” left out

Class A ESBL SHV-5 = target: T2, Class A ESBL SHV-5 (Klebsiella pneumoniae, UniProt P0A3M1); type: biochemical, E. coli; details: nitrocefin 100 μM, PBS pH 7.0, read-out: SHV-5 IC50 Range
T2 construct: made in house; host or cells: E. coli BL21(DE3) for purified enzyme; E. coli cells containing SHV-5 for extracts
T2 sequence (P0A3M1 22-286): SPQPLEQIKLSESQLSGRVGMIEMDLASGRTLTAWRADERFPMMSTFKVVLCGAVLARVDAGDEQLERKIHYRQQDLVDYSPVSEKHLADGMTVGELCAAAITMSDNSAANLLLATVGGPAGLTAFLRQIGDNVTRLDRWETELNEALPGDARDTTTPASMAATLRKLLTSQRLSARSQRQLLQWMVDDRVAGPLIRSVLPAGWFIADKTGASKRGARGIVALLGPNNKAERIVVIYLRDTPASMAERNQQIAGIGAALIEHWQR
Protocol: as §2
For the preparation of SHV-5 extracts, E. coli cells containing SHV-5 were cultured overnight with shaking at a volume of 20 mL. They were further diluted 10-fold and grown to mid-log phase (OD at 600 nm, 0.5-0.8) in Mueller-Hinton II (MH-II) broth at 37° C. The cells were pelleted at 5000 g, washed and resuspended in 2 mL PBS pH 7.0. The β-lactamase was extracted by four cycles of freezing and thawing followed by centrifugation. β-lactamase activity in the extract was measured with the chromogenic cephalosporin nitrocefin. The amount of protein in each β-lactamase preparation was determined by the bicinchoninic acid (BCA) assay.
as §3, §4

Class A ESBL CTXM-15 = target: T3, Class A ESBL CTXM-15 (Escherichia coli, UniProt Q9EXV5); test: β-lactamase enzyme inhibition (nitrocefin hydrolysis), CTXM-15; type: biochemical; details: purified enzyme; nitrocefin 100 μM, PBS pH 7.0; read-out: CTXM-15 IC50 Range
T3 construct: made in house; host or cells: E. coli BL21(DE3)
T3 sequence (Q9EXV5 entry or part of it): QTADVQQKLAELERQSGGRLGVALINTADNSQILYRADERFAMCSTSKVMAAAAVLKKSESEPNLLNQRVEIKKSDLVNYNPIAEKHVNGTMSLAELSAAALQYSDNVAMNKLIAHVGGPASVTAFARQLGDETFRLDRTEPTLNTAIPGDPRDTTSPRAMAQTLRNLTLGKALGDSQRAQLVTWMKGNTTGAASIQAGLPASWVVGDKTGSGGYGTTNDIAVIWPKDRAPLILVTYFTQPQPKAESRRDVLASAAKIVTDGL
Protocol: as §2, §3, §4

[3] = target: T4, Class A carbapenemase KPC-2 (Klebsiella pneumoniae, UniProt Q9F663); test: β-lactamase enzyme inhibition (nitrocefin hydrolysis), KPC-2; type: biochemical; details: purified enzyme; nitrocefin 100 μM, PBS pH 7.0; read-out: KPC-2 IC50 Range
T4 construct: made in house; host or cells: E. coli BL21(DE3)
T4 sequence (Q9F663 25-293 limits assumed): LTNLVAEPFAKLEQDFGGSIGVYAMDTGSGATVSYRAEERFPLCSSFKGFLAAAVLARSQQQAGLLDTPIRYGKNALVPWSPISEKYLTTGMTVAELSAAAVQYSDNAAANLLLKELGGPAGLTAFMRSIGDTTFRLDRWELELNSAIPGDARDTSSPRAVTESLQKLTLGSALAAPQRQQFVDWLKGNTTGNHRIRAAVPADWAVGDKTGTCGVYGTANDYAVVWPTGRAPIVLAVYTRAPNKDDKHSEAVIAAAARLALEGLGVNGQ
Protocol: as §2, §3, §4

[4] = cellular extracts of E. coli containing SHV-5 (Examples 2-30)

SMILES	MIC of example compound, K. pneumoniae KPC-2 + 8 μg/mL CAZ [1]	IC50 (Class C P99 AmpC)	MIC of example compound, K. pneumoniae CTX-M-15 + 8 μg/mL CAZ [2]	IC50 (Class A ESBL SHV-5; [4])	IC50 (Class A ESBL CTXM-15)	IC50 [3]	IC50 (Class A ESBL SHV-5; purified beta-lactamase enzyme (Examples 1 and 31-64))
CC(=O)N[C@@H](Cc1cccc(C(=O)O)c1O)B(O)O [Example 6, (1R)-1-(2-acetylamino)-2-(2-hydroxy-3-carboxyphenyl)ethyl-1-boronic acid]	C (C represents an MIC of <1 μg/mL)	10 to 100 nM	C (C represents an MIC of <1 μg/mL)	100 to 1000 nM	< 10 nM	–	–
NC(=O)COc1cccc(CC(=O)N[C@@H](Cc2cccc(C(=O)O)c2O)B(O)O)c1 [Example 8, (1R)-1-[(3-carbamoylmethoxy)-phenyl]-acetylamino-(3-carboxy-2-hydroxy), benzyl-methylboronic acid]	C (C represents an MIC of <1 μg/mL)	< 10 nM	C (C represents an MIC of <1 μg/mL)	< 10 nM	< 10 nM	–	–
N[C@H](C(=O)N[C@@H](Cc1cccc(C(=O)O)c1O)B(O)O)c1ccccc1.O=CO [Example 12, (1R,2′S)-1-(2-amino-2-phenylacetylamino)-2-(2-hydroxy-3-carboxyphenyl)ethyl-1-boronic acid formate salt]	C (C represents an MIC of <1 μg/mL)	100 to 1000 nM	C (C represents an MIC of <1 μg/mL)	100 to 1000 nM	10 to 100 nM	–	–
O=C(Cc1cc(O)ccc1O)N[C@@H](Cc1cccc(C(=O)O)c1O)B(O)O [Example 18, (1R)-1-(2-(2,5-dihydroxyphenyl)acetylamino)-2-(2-hydroxy-3-carboxyphenyl)ethyl-1-boronic acid]	–	< 10 nM	C (C represents an MIC of <1 μg/mL)	< 10 nM	< 10 nM	< 10 nM	–
O=C(COCc1ccccc1)N[C@@H](Cc1cccc(C(=O)O)c1O)B(O)O [Example 22, (1R)-1-(2-benzyloxyacetylamino)-2-(2-hydroxy-3-carboxyphenyl)ethyl-1-boronic acid]	C (C represents an MIC of <1 μg/mL)	10 to 100 nM	C (C represents an MIC of <1 μg/mL)	< 10 nM	< 10 nM	< 10 nM	–
CCCCCCC(=O)N[C@@H](Cc1cccc(C(=O)O)c1O)B(O)O [Example 24, (1R)-1-(heptanoylamino)-2-(2-hydroxy-3-carboxyphenyl)ethyl-1-boronic acid]	C (C represents an MIC of <1 μg/mL)	< 10 nM	C (C represents an MIC of <1 μg/mL)	< 10 nM	< 10 nM	10 to 100 nM	–
CC(C)(C)CC(=O)N[C@@H](Cc1cccc(C(=O)O)c1O)B(O)O [Example 25, (1R)-1-(3,3-Dimethyl-butyrylamino)-(3-carboxy-2-hydroxy)benzyl-methylboronic acid]	C (C represents an MIC of <1 μg/mL)	10 to 100 nM	C (C represents an MIC of <1 μg/mL)	10 to 100 nM	10 to 100 nM	10 to 100 nM	–
O=C(N[C@@H](Cc1cccc(C(=O)O)c1O)B(O)O)c1cccc(O)c1 [Example 28, (1R)-1-(3-hydroxybenzoylamino)-2-(2-hydroxy-3-carboxyphenyl)ethyl-1-boronic acid]	C (C represents an MIC of <1 μg/mL)	< 10 nM	C (C represents an MIC of <1 μg/mL)	10 to 100 nM	< 10 nM	10 to 100 nM	–
O=C(N[C@@H](Cc1cccc(C(=O)O)c1O)B(O)O)c1ccc(Cl)nc1 [Example 31, (1R)-1-(6-Chloro-pyridine-3-carbonyl)-amino-1-(3-carboxy-2-hydroxy)benzyl-methylboronic acid]	C (C represents an MIC of <1 μg/mL)	< 10 nM	C (C represents an MIC of <1 μg/mL)	–	< 10 nM	< 10 nM	< 10 nM
